From patent US9932392B2, “Prevention of infection” (priority 2012, dated 2018)

Assays:
[1] = test system: toxinogenic C. difficile strain 10465; experiment: Prevention of recurrence of C. difficile infection after vancomycin (mouse model); assay type: in vivo, C57BL/6 mice; settings: vancomycin day -1 to 3 (5 doses), then Ig 400 mG/kg po day 4 to 8 (5 doses); observation until day 28; FIG. 7
Protocol: (§1) C57BL/6 mice were housed in cages with free access to chow (Purina 5000) and tap water. Animals were treated with a mixture of oral antibiotics (kanamycin, gentamicin, colistin, metronidazole, and vancomycin) for 3 days as previously described (Chen et al (2008) Gastroenterology 135: 1984-92). Two days later, they were given parenteral clindamycin phosphate (10 mG/kg s.c.) [Day −1]. One day later [Day 0] they were challenged by gavage with 0.5×10^5 cfu of toxinogenic C. difficile strain 10465. A moderate to fulminant colitis developed 1 to 5 days after the administration of C. difficile. Untreated, this progresses rapidly into severe and fatal colitis in the majority of animals. The test compounds (suspended in carbonate buffer) were administered to groups at the dosage levels as shown in Table 1 (n=10 per group except group 4). Dosing (by gavage) started 1 day before C. difficile challenge [Day −1] and continued daily for 5 days.
(§2) Animals were weighed daily and observed three times daily for morbidity and presence or absence of severe CDI with diarrhea. Animals judged to be in a moribund state [extended period of weight loss progressing to an emaciated state, anorexia for 24-48 hrs, prolonged lethargy (more than 3 days), signs of paralysis, skin erosions or trauma, hunched posture, distended abdomen] were euthanized by a single injection of sodium pentobarbital. […]

[2] = test system: toxinogenic C. difficile strain 10465; experiment: Primary prevention of C. difficile infection (mouse model); assay type: in vivo, C57BL/6 mice; settings: po gavage day -1 to 3 (5 doses), FIG. 6
Protocol: as §1, §2

CN[C@H](CC(C)C)C(=O)N[C@H]1C(=O)N[C@@H](CC(N)=O)C(=O)N[C@H]2C(=O)N[C@H]3C(=O)N[C@H](C(=O)N[C@H](C(=O)O)c4cc(O)cc(O)c4-c4cc3ccc4O)[C@H](O)c3ccc(c(Cl)c3)Oc3cc2cc(c3O[C@@H]2O[C@H](CO)[C@@H](O)[C@H](O)[C@H]2O[C@H]2C[C@](C)(N)[C@H](O)[C@H](C)O2)Oc2ccc(cc2Cl)[C@H]1O [Vancomycin]
rate of recurrence of infection (animals) [1]: 6 out of 10 | fraction of animals with recurrence of C. difficile infection after stopping treatment [2]: 60% | survival rate ([2]; vancomycin 50 mG/kg, IgA 400 mG/kg): 40%
